Drawing on PubChem BioAssay AID330 (DTP/NCI, 2004), this text covers T/C for 24 molecules.

“And” between values parts separate entries of the source, which are not always exact repeats. Equal entries are not always repeated. Toxic doses and inconclusive results are not listed. Square brackets hold non-standard residues; d marks the D form. Peptide text beside a SMILES is read from it. ξ: configuration not given here. ξNva = CCCC(N)C(=O)O

The test system of this assay is P388 leukemia ip, CD2F1 mice, survival T/C. Description: NCI In Vivo Anticancer Drug Screen. Data for tumor model P388 Leukemia (intraperitoneal) in CD2F1 (CDF1) mice. The conditions noted are these: endpoint: median survival time, higher = longer survival. The procedure, abridged: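 Mice carrying the transplanted tumor received test compound or vehicle. Survival was recorded in each group, and the value is the treated-group measurement divided by that of the vehicle-treated control group.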

Where [1] appears, read: dose: 100.0 mg/kg/injection, schedule: Q04DX003 (ip), vehicle: saline with Tween-80.
[2] abbreviates: dose: 200.0 mg/kg/injection, schedule: Q04DX003 (ip), vehicle: saline with Tween-80.
Where [3] appears, read: dose: 400.0 mg/kg/injection, schedule: Q04DX003 (ip), vehicle: saline with Tween-80.
[4] abbreviates: dose: 2.5 mg/kg/injection, schedule: Q01DX009 (ip), vehicle: saline with Tween-80.
The mark [5] stands for this setting: dose: 5.0 mg/kg/injection, schedule: Q01DX009 (ip), vehicle: saline with Tween-80.
Setting [6] is: dose: 10.0 mg/kg/injection, schedule: Q01DX009 (ip), vehicle: saline with Tween-80.
Setting [7] is: dose: 50.0 mg/kg/injection, schedule: Q01DX005 (ip), vehicle: saline with Tween-80.
[8] abbreviates: dose: 100.0 mg/kg/injection, schedule: Q01DX005 (ip), vehicle: saline with Tween-80.
Where [9] appears, read: dose: 200.0 mg/kg/injection, schedule: Q01DX005 (ip), vehicle: saline with Tween-80.
Where [10] appears, read: dose: 50.0 mg/kg/injection, schedule: Q01DX005 (ip), vehicle: Klucel (hydroxypropylcellulose) (HPC).
Setting [11] is: dose: 100.0 mg/kg/injection, schedule: Q01DX005 (ip), vehicle: Klucel (hydroxypropylcellulose) (HPC).
[12] abbreviates: dose: 200.0 mg/kg/injection, schedule: Q01DX005 (ip), vehicle: Klucel (hydroxypropylcellulose) (HPC).
Where [13] appears, read: dose: 60.0 mg/kg/injection, schedule: Q01DX005 (ip), vehicle: saline with Tween-80.
Setting [14] is: dose: 120.0 mg/kg/injection, schedule: Q01DX005 (ip), vehicle: saline with Tween-80.
Where [15] appears, read: dose: 50.0 mg/kg/injection, schedule: Q01DX009 (ip), vehicle: saline with Tween-80.
[16] abbreviates: dose: 240.0 mg/kg/injection, schedule: Q01DX005 (ip), vehicle: saline with Tween-80.

`COc1cc2c(c(OC)c1OC)-c1cc3c(cc1C(OC1OC4COC(c5cccs5)OC4C(O)C1O)C1COC(=O)C1C2)OCO3` (centres undefined): the T/C by setting is: (dose: 14.5 mg/kg/injection, schedule: Q01DX005 (ip), vehicle: Klucel (hydroxypropylcellulose) (HPC)) 101 % of control; (dose: 29.0 mg/kg/injection, schedule: Q01DX005 (ip), vehicle: Klucel (hydroxypropylcellulose) (HPC)) 99 % of control; (dose: 58.0 mg/kg/injection, schedule: Q01DX005 (ip), vehicle: Klucel (hydroxypropylcellulose) (HPC)) 94 % of control; (dose: 116.0 mg/kg/injection, schedule: Q01DX005 (ip), vehicle: Klucel (hydroxypropylcellulose) (HPC)) 90 % of control.
In the case of `CC1=NN(C(=O)c2cccnc2)C(=O)C1N=Nc1ccc(S(=O)(=O)Nc2nccs2)cc1` (centres undefined), the T/C is, setting by setting: under setting [1], 101 % of control; under setting [2], 99 % of control; under setting [3], 95 % of control.
For `Clc1cccc(-c2nc3ccccc3c3ccccc23)c1`, in that order: 100 % of control, 90 % of control and 90 % of control.
As to `COc1ccc(Cc2cc(O)c(O)cc2C)cc1`, the T/C under setting [4] was 108 % of control, the T/C under setting [5] is 105 % of control and the T/C under setting [6] was 108 % of control.
In the case of `CC(=O)OC1COC2OC1C(OC(C)=O)C2OC(C)=O` (centres undefined), the T/C runs as follows: under setting [7], 101 % of control; under setting [8], 104 % of control; under setting [9], 101 % of control.
For the molecule `COc1ccc(Cc2cc(N=NC(N)=O)c(OC)cc2O)cc1`, the T/C reads like this: (dose: 12.5 mg/kg/injection, schedule: Q01DX005 (ip), vehicle: saline with Tween-80) 93 % of control; (dose: 25.0 mg/kg/injection, schedule: Q01DX005 (ip), vehicle: saline with Tween-80) 87 % of control; under setting [7], 88 % of control.
For `CCCCC1=C(O)c2ccccc2C(=NC(CO)(CO)CO)C1=O`, the T/C is 103 % of control under setting [7], 110 % of control under setting [8] and 100 % of control under setting [9].
As for `CCOc1cc2c(cc1C(CC)c1ccccc1)OCO2` (centres undefined), the T/C by setting is: under setting [10], 99 % of control; under setting [11], 96 % of control; under setting [12], 95 % of control.
In the case of `Cc1cccc(=O)[n-]1.Cc1cccc(=O)[n-]1.Cc1cccc(=O)[n-]1.Cc1cccc(=O)[n-]1.[Mo+2].[Mo+2]`, the T/C is 102 % of control (dose: 100.0 mg/kg/injection, schedule: Q04DX002 (ip), vehicle: Klucel (hydroxypropylcellulose) (HPC)); 98 % of control (dose: 200.0 mg/kg/injection, schedule: Q04DX002 (ip), vehicle: Klucel (hydroxypropylcellulose) (HPC)); 100 % of control (dose: 400.0 mg/kg/injection, schedule: Q04DX002 (ip), vehicle: Klucel (hydroxypropylcellulose) (HPC)).
Turning to `Clc1ccc(COCc2ccccc2Cn2ccnc2)cc1`, the T/C under setting [13] was 95 % of control and the T/C under setting [14] is 99 % of control.
With `O=C1NNC(c2ccccc2)C1(Cl)Cl` (centres undefined), the T/C (dose: 12.5 mg/kg/injection, schedule: Q01DX009 (ip), vehicle: saline with Tween-80) was 101 % of control and the T/C under setting [15] is 99 % of control.
Take `O=C(NCCNc1ccccc1)C12CC3CC(CC(C3)C1)C2`: the T/C runs as follows: under setting [10], 100 % of control; under setting [11], 95 % of control; under setting [12], 95 % of control.
As to `CCOc1cc2cc(/C=N/OCC3CO3)c(Cl)nc2cc1OCC` (centres undefined), the T/C runs as follows: (dose: 50.0 mg/kg/injection, schedule: Q01DX005 (ip), vehicle: suspension in saline) 92 % of control; (dose: 100.0 mg/kg/injection, schedule: Q01DX005 (ip), vehicle: suspension in saline) 92 % of control; (dose: 200.0 mg/kg/injection, schedule: Q01DX005 (ip), vehicle: suspension in saline) 90 % of control.
`CN(C)c1ccc(NN=O)nc1`: the T/C is, setting by setting: (dose: 1.56 mg/kg/injection, schedule: Q01DX009 (ip), vehicle: water) 122 % of control; (dose: 6.25 mg/kg/injection, schedule: Q01DX009 (ip), vehicle: water) 150 % of control; (dose: 12.5 mg/kg/injection, schedule: Q01DX009 (ip), vehicle: water) 110 % of control.
On to `CCOC(=O)CCC(NC(=O)c1ccc(NCc2cnc3nc(N)nc(N)c3c2)cc1)C(=O)OCC` (centres undefined), for which the T/C by setting is: (dose: 0.25 mg/kg/injection, schedule: Q01DX005 (ip), vehicle: saline with Tween-80) 162 % of control; (dose: 0.5 mg/kg/injection, schedule: Q01DX005 (ip), vehicle: saline with Tween-80) 158 % of control and 183 % of control; (dose: 1.0 mg/kg/injection, schedule: Q01DX005 (ip), vehicle: saline with Tween-80) 183 % of control and 218 % of control; (dose: 2.0 mg/kg/injection, schedule: Q01DX005 (ip), vehicle: saline with Tween-80) 104 % of control; (dose: 125.0 micrograms/kg/injection, schedule: Q01DX005 (ip), vehicle: saline with Tween-80) 114 % of control; (dose: 1000.0 micrograms/kg/injection, schedule: Q01DX005 (ip), vehicle: saline with Tween-80) 151 % of control.
With `CN(C)CN1CSC(=S)N(CN(C)C)C1`, the T/C is 103 % of control (dose: 50.0 mg/kg/injection, schedule: Q01DX005 (ip), vehicle: distilled water + alcohol); 116 % of control (dose: 100.0 mg/kg/injection, schedule: Q01DX005 (ip), vehicle: distilled water + alcohol); 103 % of control (dose: 200.0 mg/kg/injection, schedule: Q01DX005 (ip), vehicle: distilled water + alcohol).
For `CC(=O)Nc1c(Nc2ccc3c(=O)[nH]ccc3c2C)cc[nH]c1=O`, the T/C runs as follows: under setting [13], 102 % of control; under setting [14], 104 % of control; under setting [16], 103 % of control.
Regarding `COc1cc(Br)cc(/C=C/[N+](=O)[O-])c1OC`, the T/C under setting [15] was 115 % of control.
Consider `NC(N)=NO`, for which the T/C (dose: 8.2 mg/kg/injection, schedule: Q01DX009 (ip), vehicle: water) was 110 % of control; the T/C (dose: 12.0 mg/kg/injection, schedule: Q01DX009 (ip), vehicle: water) is 105 % of control; the T/C (dose: 75.0 mg/kg/injection, schedule: Q01DX009 (ip), vehicle: saline) is 155 % of control; the T/C (dose: 150.0 mg/kg/injection, schedule: Q01DX009 (ip), vehicle: saline) was 170 % of control.
For `c1cc(Cc2ccsc2)cs1`, the T/C is, setting by setting: under setting [13], 104 % of control; under setting [14], 104 % of control; under setting [16], 106 % of control.
As to `CNCC1CCCCC1NC` (centres undefined), the T/C reads like this: (dose: 50.0 mg/kg/injection, schedule: Q04DX003 (ip), vehicle: saline) 99 % of control; (dose: 100.0 mg/kg/injection, schedule: Q04DX003 (ip), vehicle: saline) 97 % of control; (dose: 200.0 mg/kg/injection, schedule: Q04DX003 (ip), vehicle: saline) 96 % of control.
`CCCC(NC(=O)CNC(=O)CN)C(=O)O` (stereo not drawn) (H-Gly-Gly-[ξNva]-OH): the T/C is, setting by setting: (dose: 60.0 mg/kg/injection, schedule: Q01DX005 (ip), vehicle: saline) 98 % of control; (dose: 120.0 mg/kg/injection, schedule: Q01DX005 (ip), vehicle: saline) 106 % of control; (dose: 240.0 mg/kg/injection, schedule: Q01DX005 (ip), vehicle: saline) 106 % of control.
For `Cc1ccnc2cc(N(C)C)ccc12`, the T/C (dose: 7.5 mg/kg/injection, schedule: Q01DX005 (ip), vehicle: Klucel (hydroxypropylcellulose) (HPC)) was 101 % of control; the T/C (dose: 15.0 mg/kg/injection, schedule: Q01DX005 (ip), vehicle: Klucel (hydroxypropylcellulose) (HPC)) was 98 % of control; the T/C (dose: 30.0 mg/kg/injection, schedule: Q01DX005 (ip), vehicle: Klucel (hydroxypropylcellulose) (HPC)) was 99 % of control; the T/C (dose: 60.0 mg/kg/injection, schedule: Q01DX005 (ip), vehicle: Klucel (hydroxypropylcellulose) (HPC)) was 92 % of control.
As for `CCOC(=O)CC(=O)C(F)(F)F.[Cu+2]`, the T/C is, setting by setting: under setting [4], 100 % of control; under setting [5], 115 % of control; under setting [6], 110 % of control.
